Patent publication US20230085307A1, “PYRIDAZINONE COMPOUND AND HERBICIDE” (NISSAN CHEMICAL CORPORATION, priority 2019, published 2023)

Assays:
lambsquarters [1] = assay: Test Example 4: herbicidal effect by soil treatment (Table 19, symbol O); type: in vivo, lambsquarters (Chenopodium album)
How it was run: (§1)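 Herbicidal effect was rated 3 weeks after treatment, using the scoring criteria of an earlier test. The compound, formulated as an emulsion and diluted in water to a set herbicide amount, had been sprayed uniformly on soil over freshly sown seeds. Growth took place in a greenhouse at 25° C. to 30° C.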

Chinese sprangletop = assay: Test Example 3: herbicidal effect by foliage application, Wagner pot (Table 18, symbol D); type: in vivo, chinese sprangletop (Leptochloa chinensis)
How it was run: (§2)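 Plants were sown in alluvial soil held under 0.1–0.5 cm standing water and grown 14 days in a greenhouse at 25–30 °C. An emulsifiable formulation, water-diluted to the set dose, was then sprayed onto the foliage, and effects were scored three weeks later using previously defined criteria.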

persian speedwell [2] = assay: Test Example 5: herbicidal effect by foliage application, plastic box (Table 20, symbol R); type: in vivo, Persian speedwell (Veronica persica); settings: foliage application, three weeks after application
How it was run: (§3)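 Foliar spray test: emulsion formulation diluted in water to a set application rate, sprayed onto 14-day-old plants raised in diluvial soil at 25° C to 30° C under glass. Both herbicidal effect and crop effect rated visually three weeks later.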

lambsquarters [3] = assay: Test Example 5: herbicidal effect by foliage application, plastic box (Table 20, symbol O); type: in vivo, lambsquarters (Chenopodium album); settings: foliage application, three weeks after application
How it was run: as §3

velvetleaf [4] = assay: Test Example 5: herbicidal effect by foliage application, plastic box (Table 20, symbol M); type: in vivo, velvetleaf (Abutilon theophrasti); settings: foliage application, three weeks after application
How it was run: as §3

blackgrass [5] = assay: Test Example 4: herbicidal effect by soil treatment (Table 19, symbol J); type: in vivo, blackgrass (Alopecurus myosuroides)
How it was run: as §1

barnyard grass [6] = assay: Test Example 4: herbicidal effect by soil treatment (Table 19, symbol H); type: in vivo, barnyard grass (Echinochloa crus-galli)
How it was run: as §1

wild oat [7] = assay: Test Example 5: herbicidal effect by foliage application, plastic box (Table 20, symbol I); type: in vivo, wild oat (Avena fatua); settings: foliage application, three weeks after application
How it was run: as §3

chickweed [8] = assay: Test Example 4: herbicidal effect by soil treatment (Table 19, symbol P); type: in vivo, common chickweed (Stellaria media)
How it was run: as §1

Italian ryegrass [9] = assay: Test Example 5: herbicidal effect by foliage application, plastic box (Table 20, symbol K); type: in vivo, Italian ryegrass (Lolium multiflorum); settings: foliage application, three weeks after application
How it was run: as §3

barnyard grass [10] = assay: Test Example 5: herbicidal effect by foliage application, plastic box (Table 20, symbol H); type: in vivo, barnyard grass (Echinochloa crus-galli); settings: foliage application, three weeks after application
How it was run: as §3

barnyard grass [11] = assay: Test Example 3: herbicidal effect by foliage application, Wagner pot (Table 18, symbol H); type: in vivo, barnyard grass (Echinochloa crus-galli)
How it was run: as §2

persian speedwell [12] = assay: Test Example 4: herbicidal effect by soil treatment (Table 19, symbol R); type: in vivo, Persian speedwell (Veronica persica)
How it was run: as §1

redroot pigweed [13] = assay: Test Example 5: herbicidal effect by foliage application, plastic box (Table 20, symbol N); type: in vivo, redroot pigweed (Amaranthus retroflexus); settings: foliage application, three weeks after application
How it was run: as §3

chickweed [14] = assay: Test Example 5: herbicidal effect by foliage application, plastic box (Table 20, symbol P); type: in vivo, common chickweed (Stellaria media); settings: foliage application, three weeks after application
How it was run: as §3

green foxtail [15] = assay: Test Example 4: herbicidal effect by soil treatment (Table 19, symbol G); type: in vivo, green foxtail (Setaria viridis)
How it was run: as §1

windgrass [16] = assay: Test Example 5: herbicidal effect by foliage application, plastic box (Table 20, symbol L); type: in vivo, windgrass (Apera spica-venti); settings: foliage application, three weeks after application
How it was run: as §3

blackgrass [17] = assay: Test Example 5: herbicidal effect by foliage application, plastic box (Table 20, symbol J); type: in vivo, blackgrass (Alopecurus myosuroides); settings: foliage application, three weeks after application
How it was run: as §3

Italian ryegrass [18] = assay: Test Example 4: herbicidal effect by soil treatment (Table 19, symbol K); type: in vivo, Italian ryegrass (Lolium multiflorum)
How it was run: as §1

redroot pigweed [19] = assay: Test Example 4: herbicidal effect by soil treatment (Table 19, symbol N); type: in vivo, redroot pigweed (Amaranthus retroflexus)
How it was run: as §1

wild oat [20] = assay: Test Example 4: herbicidal effect by soil treatment (Table 19, symbol I); type: in vivo, wild oat (Avena fatua)
How it was run: as §1

windgrass [21] = assay: Test Example 4: herbicidal effect by soil treatment (Table 19, symbol L); type: in vivo, windgrass (Apera spica-venti)
How it was run: as §1

false cleavers [22] = assay: Test Example 5: herbicidal effect by foliage application, plastic box (Table 20, symbol Q); type: in vivo, false cleavers (Galium spurium); settings: foliage application, three weeks after application
How it was run: as §3

southern crabgrass [23] = assay: Test Example 5: herbicidal effect by foliage application, plastic box (Table 20, symbol F); type: in vivo, southern crabgrass (Digitaria ciliaris); settings: foliage application, three weeks after application
How it was run: as §3

false cleavers [24] = assay: Test Example 4: herbicidal effect by soil treatment (Table 19, symbol Q); type: in vivo, false cleavers (Galium spurium)
How it was run: as §1

southern crabgrass [25] = assay: Test Example 4: herbicidal effect by soil treatment (Table 19, symbol F); type: in vivo, southern crabgrass (Digitaria ciliaris)
How it was run: as §1

rice flat sedge = assay: Test Example 3: herbicidal effect by foliage application, Wagner pot (Table 18, symbol E); type: in vivo, rice flat sedge (Cyperus iria)
How it was run: as §2

velvetleaf [26] = assay: Test Example 4: herbicidal effect by soil treatment (Table 19, symbol M); type: in vivo, velvetleaf (Abutilon theophrasti)
How it was run: as §1

green foxtail [27] = assay: Test Example 5: herbicidal effect by foliage application, plastic box (Table 20, symbol G); type: in vivo, green foxtail (Setaria viridis); settings: foliage application, three weeks after application
How it was run: as §3

[28] = amount of applied herbicide 144 g/ha
[29] = amount of applied herbicide 320 g/ha

Compound: Cc1nn(C)c(=O)c(-c2c(-c3ccc(C(F)(F)F)nc3)sc3ccccc23)c1O [1-078]
- herbicidal effect rating, O: lambsquarters (lambsquarters [1]; [28]): 3 (Herbicidal rate of 40% or more and less than 70%)
- herbicidal effect on D (Chinese sprangletop), rating 0-5 (Chinese sprangletop; 144 g/ha): 0 (Herbicidal rate of 5% or less (almost no effect))
- herbicidal effect grade, R: persian speedwell (persian speedwell [2]; 144 g/ha): 5 (Herbicidal rate of 90% or more (almost completely withered))
- herbicidal effect grade, O: lambsquarters (lambsquarters [3]; 144 g/ha): 2 (Herbicidal rate of 20% or more and less than 40%)
- herbicidal effect grade, M: velvetleaf (velvetleaf [4]; 144 g/ha): 5 (Herbicidal rate of 90% or more (almost completely withered))
- herbicidal effect rating, J: blackgrass (blackgrass [5]; [28]): 0 (Herbicidal rate of 5% or less (almost no effect))
- herbicidal effect rating, H: barnyard grass (barnyard grass [6]; [28]): 2 (Herbicidal rate of 20% or more and less than 40%)
- herbicidal effect grade, I: wild oat (wild oat [7]; 144 g/ha): 0 (Herbicidal rate of 5% or less (almost no effect))
- herbicidal effect rating, P: chickweed (chickweed [8]; [28]): 0 (Herbicidal rate of 5% or less (almost no effect))
- herbicidal effect grade, K: Italian ryegrass (Italian ryegrass [9]; 144 g/ha): 0 (Herbicidal rate of 5% or less (almost no effect))
- herbicidal effect grade, H: barnyard grass (barnyard grass [10]; 144 g/ha): 0 (Herbicidal rate of 5% or less (almost no effect))
- herbicidal effect on H (barnyard grass), rating 0-5 (barnyard grass [11]; 144 g/ha): 1 (Herbicidal rate of 5% or more and less than 20%)
- herbicidal effect rating, R: persian speedwell (persian speedwell [12]; [28]): 2 (Herbicidal rate of 20% or more and less than 40%)
- herbicidal effect grade, N: redroot pigweed (redroot pigweed [13]; 144 g/ha): 0 (Herbicidal rate of 5% or less (almost no effect))
- herbicidal effect grade, P: chickweed (chickweed [14]; 144 g/ha): 5 (Herbicidal rate of 90% or more (almost completely withered))
- herbicidal effect rating, G: green foxtail (green foxtail [15]; [28]): 0 (Herbicidal rate of 5% or less (almost no effect))
- herbicidal effect grade, L: windgrass (windgrass [16]; 144 g/ha): 0 (Herbicidal rate of 5% or less (almost no effect))
- herbicidal effect grade, J: blackgrass (blackgrass [17]; 144 g/ha): 0 (Herbicidal rate of 5% or less (almost no effect))
- herbicidal effect rating, K: Italian ryegrass (Italian ryegrass [18]; [28]): 0 (Herbicidal rate of 5% or less (almost no effect))
- herbicidal effect rating, N: redroot pigweed (redroot pigweed [19]; [28]): 0 (Herbicidal rate of 5% or less (almost no effect))
- herbicidal effect rating, I: wild oat (wild oat [20]; [28]): 0 (Herbicidal rate of 5% or less (almost no effect))
- herbicidal effect rating, L: windgrass (windgrass [21]; [28]): 0 (Herbicidal rate of 5% or less (almost no effect))
- herbicidal effect grade, Q: false cleavers (false cleavers [22]; 144 g/ha): 1 (Herbicidal rate of 5% or more and less than 20%)
- herbicidal effect grade, F: southern crabgrass (southern crabgrass [23]; 144 g/ha): 0 (Herbicidal rate of 5% or less (almost no effect))
- herbicidal effect rating, Q: false cleavers (false cleavers [24]; [28]): 0 (Herbicidal rate of 5% or less (almost no effect))
- herbicidal effect rating, F: southern crabgrass (southern crabgrass [25]; [28]): 0 (Herbicidal rate of 5% or less (almost no effect))
- herbicidal effect on E (rice flat sedge), rating 0-5 (rice flat sedge; 144 g/ha): 3 (Herbicidal rate of 40% or more and less than 70%)
- herbicidal effect rating, M: velvetleaf (velvetleaf [26]; [28]): 0 (Herbicidal rate of 5% or less (almost no effect))
- herbicidal effect grade, G: green foxtail (green foxtail [27]; 144 g/ha): 0 (Herbicidal rate of 5% or less (almost no effect))

Compound: Cc1nn(C)c(=O)c(-c2c(-c3ccsc3)sc3ccccc23)c1O [1-083]
- herbicidal effect rating, O: lambsquarters (lambsquarters [1]; [29]): 0 (Herbicidal rate of 5% or less (almost no effect))
- herbicidal effect on D (Chinese sprangletop), rating 0-5 (Chinese sprangletop; 320 g/ha): 3 (Herbicidal rate of 40% or more and less than 70%)
- herbicidal effect grade, R: persian speedwell (persian speedwell [2]; 320 g/ha): 3 (Herbicidal rate of 40% or more and less than 70%)
- herbicidal effect grade, O: lambsquarters (lambsquarters [3]; 320 g/ha): 0 (Herbicidal rate of 5% or less (almost no effect))
- herbicidal effect grade, M: velvetleaf (velvetleaf [4]; 320 g/ha): 5 (Herbicidal rate of 90% or more (almost completely withered))
- herbicidal effect rating, J: blackgrass (blackgrass [5]; [29]): 0 (Herbicidal rate of 5% or less (almost no effect))
- herbicidal effect rating, H: barnyard grass (barnyard grass [6]; [29]): 0 (Herbicidal rate of 5% or less (almost no effect))
- herbicidal effect grade, I: wild oat (wild oat [7]; 320 g/ha): 3 (Herbicidal rate of 40% or more and less than 70%)
- herbicidal effect rating, P: chickweed (chickweed [8]; [29]): 5 (Herbicidal rate of 90% or more (almost completely withered))
- herbicidal effect grade, K: Italian ryegrass (Italian ryegrass [9]; 320 g/ha): 4 (Herbicidal rate of 70% or more and less than 90%)
- herbicidal effect grade, H: barnyard grass (barnyard grass [10]; 320 g/ha): 0 (Herbicidal rate of 5% or less (almost no effect))
- herbicidal effect on H (barnyard grass), rating 0-5 (barnyard grass [11]; 320 g/ha): 3 (Herbicidal rate of 40% or more and less than 70%)
- herbicidal effect rating, R: persian speedwell (persian speedwell [12]; [29]): 5 (Herbicidal rate of 90% or more (almost completely withered))
- herbicidal effect grade, N: redroot pigweed (redroot pigweed [13]; 320 g/ha): 3 (Herbicidal rate of 40% or more and less than 70%)
- herbicidal effect grade, P: chickweed (chickweed [14]; 320 g/ha): 5 (Herbicidal rate of 90% or more (almost completely withered))
- herbicidal effect rating, G: green foxtail (green foxtail [15]; [29]): 0 (Herbicidal rate of 5% or less (almost no effect))
- herbicidal effect grade, L: windgrass (windgrass [16]; 320 g/ha): 3 (Herbicidal rate of 40% or more and less than 70%)
- herbicidal effect grade, J: blackgrass (blackgrass [17]; 320 g/ha): 1 (Herbicidal rate of 5% or more and less than 20%)
- herbicidal effect rating, K: Italian ryegrass (Italian ryegrass [18]; [29]): 3 (Herbicidal rate of 40% or more and less than 70%)
- herbicidal effect rating, N: redroot pigweed (redroot pigweed [19]; [29]): 0 (Herbicidal rate of 5% or less (almost no effect))
- herbicidal effect rating, I: wild oat (wild oat [20]; [29]): 2 (Herbicidal rate of 20% or more and less than 40%)
- herbicidal effect rating, L: windgrass (windgrass [21]; [29]): 0 (Herbicidal rate of 5% or less (almost no effect))
- herbicidal effect grade, Q: false cleavers (false cleavers [22]; 320 g/ha): 4 (Herbicidal rate of 70% or more and less than 90%)
- herbicidal effect grade, F: southern crabgrass (southern crabgrass [23]; 320 g/ha): 2 (Herbicidal rate of 20% or more and less than 40%)
- herbicidal effect rating, Q: false cleavers (false cleavers [24]; [29]): 3 (Herbicidal rate of 40% or more and less than 70%)
- herbicidal effect rating, F: southern crabgrass (southern crabgrass [25]; [29]): 0 (Herbicidal rate of 5% or less (almost no effect))
- herbicidal effect on E (rice flat sedge), rating 0-5 (rice flat sedge; 320 g/ha): 4 (Herbicidal rate of 70% or more and less than 90%)
- herbicidal effect rating, M: velvetleaf (velvetleaf [26]; [29]): 0 (Herbicidal rate of 5% or less (almost no effect))
- herbicidal effect grade, G: green foxtail (green foxtail [27]; 320 g/ha): 0 (Herbicidal rate of 5% or less (almost no effect))
